# “And” between values parts separate entries of the source, which are not always exact repeats. Identical values can stand only once.
# Biological target: T1, CYP2A6 (Homo sapiens, UniProt P11509)
# T1 sequence (P11509 1-494): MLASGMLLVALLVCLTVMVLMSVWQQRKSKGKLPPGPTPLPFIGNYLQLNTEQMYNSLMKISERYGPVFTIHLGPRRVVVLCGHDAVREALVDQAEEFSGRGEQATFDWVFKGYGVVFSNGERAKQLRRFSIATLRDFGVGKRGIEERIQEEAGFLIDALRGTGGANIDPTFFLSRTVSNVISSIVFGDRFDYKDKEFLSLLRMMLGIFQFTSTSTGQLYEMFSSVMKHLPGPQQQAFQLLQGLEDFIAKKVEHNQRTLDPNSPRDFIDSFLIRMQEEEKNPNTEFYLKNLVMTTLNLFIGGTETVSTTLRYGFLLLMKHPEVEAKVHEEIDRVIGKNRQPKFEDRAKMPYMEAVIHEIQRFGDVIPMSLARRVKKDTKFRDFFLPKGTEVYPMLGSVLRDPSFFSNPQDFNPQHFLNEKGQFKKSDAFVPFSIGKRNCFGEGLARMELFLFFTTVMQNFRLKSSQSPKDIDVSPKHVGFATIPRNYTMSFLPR
# Assay: Metabolism in transgenic HEK293 cells expressing CYP2A6
# Type: in vitro ADME
# Parameters: V5-His (vector-encoded) (C); expressed in transfected cells
# Details: 20 µM parent PCB, 24 h; for Quantification of metabolites generated from PCB28, 52, and 101: supernatant
# Protocol: For the generation of transgenic cell lines, we used semi-adherent HEK293 cells (DSMZ, ACC305, human embryonic kidney cells) which were cultured on a daily basis in DMEM medium supplemented with 10% (FCS) and 1% penicillin/streptomycin. In a first step CYP1A2, CYP2C8, CYP2C9, CYP3A4, CYP2A6, and CYP2E1 cDNA were cloned into the plasmid pcDNATM3.1/V5-His TOPO® using human liver RNA as a template and using the following primers: CYP1A2 for5′-[…]-3′, CYP1A2 rev 5′-[…]-3′; CYP2C8 for 5′-[…]-3′, CYP2C8 rev 5′-[…]-3′; CYP2C9 for 5′-[…]-3′, CYP2C9 rev 5′-[…]-3′; CYP3A4 for 5′-[…]-3′, CYP3A4 rev 5′-[…]-3′, CYP2A6 for 5′-[…]-3′, CYP2A6 rev 5′-[…]-3′; CYP2E1 for 5′-[…]-3′, CYP2E1 rev 5′-[…]-3′. Final constructs were verified with Sanger DNA sequencing and restriction digestion. For transfection, 3 × 10^6 HEK293 cells were pre-incubated in a 10 cm dish in DMEM medium with 10% FCS, but without antibiotics, for 18 to 24 h. When the cells reached approximately 70% confluency, they were transfected using TransIT-LT1 transfection reagent (Biozol, Eiching, Germany). The TransIT-LT1 reagent was warmed to room temperature and vortexed. 1.63 mL Opti-MEM, 16.25 µL plasmid DNA (1 µg/µL), and 48.75 µL TransIT-LT1 reagent were mixed and incubated for 15 to 30 min. The mixture was then added dropwise to the medium of the cells, and the cells were incubated again at 37 °C and 5% CO2. After 24 h, the medium was replaced with standard medium and geneticin was added for selection (1 mg/mL). Cells were selected for 6–8 weeks in bulk culture, and single cell clones were obtained subsequently by limiting dilution. Each clone was checked for insertion by PCR using genomic DNA as a template.
# Parallel samples were run without the addition of PCBs. At a confluence of 80%, PCBs (20 μM each, dissolved in ethanol) were added and cells were incubated for 24 h before harvest of supernatants. Supernatants were diluted 1:2 with 80 μL acetate buffer 0.1 M (pH = 5.3). 100 μL of this dilution were further incubated with 100 μL of ammonium acetate buffer 0.1 M (pH = 5.3) and 5 μL of β-Glucuronidase/Arylsulfatase enzyme overnight in a drying oven at 37 °C for enzymatic hydrolysis to release conjugated compounds. 50 μL of a mix of internal standards (10 ng/mL) and 600 μL of methanol were added to the samples, then mixed by vortexing for 1 min and centrifuged for 10 min at 3400g. The individual supernatants were transferred to glass LC vials and evaporated to approximately 50 μL at 45 °C under a gentle stream of nitrogen. Finally, 0.1 mol/ L ammonium acetate buffer was added to a final volume of 100 μL and then transferred to an insert for analysis.
# HEK293 cells overexpressing the respective CYP enzymes were seeded onto 6-well plates and were treated with or without 10 µM of the respective probe drug in DMEM medium for 24 hours at 37 °C and 5 % CO2. After incubation 200 µL DMEM were collected, cells were washed with PBS and adherent cells were lysed in 500 µL methanol for 20 minutes. Analytes were measured by LC-MS/MS either in methanol cell lysates or in DMEM supernatant.
# 50 µL of DMEM samples were protein precipitated by adding 200 µL of methanol and were centrifuged for 20 min, 17,000 g and 4°C. Supernatants were diluted in water or 40 % methanol according to dilution factor. Methanol cell lysates were diluted ½ with water and centrifuged for 20 min, 17,000 g and 4°C. 5 µL of the processed samples were injected for LC-MS analysis.
Structure (SMILES),"Quantification of metabolites generated from PCB28, 52, and 101 (CYP2A6 Clone B7)","Quantification of metabolites generated from PCB28, 52, and 101 (CYP2A6 Clone C4)","Quantification of metabolites generated from PCB28, 52, and 101 (CYP2A6 Clone C5)","Metabolite concentration formed, range across cell clones (HEK293CYP2A6 cell lines)"
"Oc1cc(-c2ccc(Cl)cc2)c(Cl)cc1Cl [5-OHCB28, 2,4,4′-trichloro-5-biphenylol]","1,84 nM","1,33 nM","0,22 nM",–
"Oc1cc(Cl)c(-c2ccc(Cl)cc2)cc1Cl [4-OHCB31, 2,4′,5-trichloro-4-biphenylol]",–,"0,63 nM","0,11 nM",0.18–1.31 µg/L and 0.66–4.8 nM
